# Patent publication US8653285B2 (Nippon Zoki Pharmaceutical Co., Ltd., priority 2008, dated 2014)
# Where a name gives a salt, the structure may show the parent alone.
# Biological target: human histamine H1 receptor (Homo sapiens, UniProt P35367)
# Assay: In vitro human histamine H1 receptor binding experiment ([3H]pyrilamine, HEK293A cells stably expressing the receptor)
# Settings: [3H]pyrilamine 3 nmol/L, room temperature 60 minutes
# Description: Recombinant human histamine H1 receptor plasmid (prepared by Invitrogen) was transfected to HEK293A cells with Lipofectamine 2000 (Invitrogen). Cells stably expressing human histamine H1 receptor were screened with Geneticin (Invitrogen). The cells were continued to be cultured using a Dulbecco's Modified Eagle Medium containing 10% fetal bovine serum, 0.1 mmol/L MEM Non-Essential Amino Acids Solution, 2 mmol/L L-glutamine and 0.7 mg/mL Geneticin in a 5% CO2 incubator at 37° C. The cells stably expressing human histamine H1 receptor were prepared using 50 mmol/L Tris-HCl (pH 7.5) (hereinafter referred to as buffer) containing 0.1% bovine serum albumin, so as to have a concentration of 3×10^6 cells/mL, to give a cell sample preparation. Fifty microliters of the buffer, 50 μL of a test substance solution at various concentrations, and 50 μL of [^3H]pyrilamine solution (final concentration: 3 nmol/L) were added to each of the wells on the 96-well plate, and stirred, and 100 μL of the cell sample preparation was then added thereto (at a concentration of 3×10^5 cells/well) to initiate the reaction.
# The cells were incubated at room temperature for 60 minutes, and then filtered on UniFilter GF/C plate (Packard) immersed in 0.5% polyethyleneimine using a cell harvester (IH-110, INNOTECH CORPORATION), to stop the reaction, and the plate was washed with the buffer. The plate after washing was sufficiently dried, and 20 μL of a scintillator (MaxiLight, manufactured by Hidex) was added thereto, and count per minute (cpm) was measured with a multi-labeled microplate reader (Plate Chameleo II, Hidex). The nonspecific binding was cpm in a case where 30 μmol/L pyrilamine was added. The experiments were carried out at n=3, and at least repeated 3 times.
# Chain of human histamine H1 receptor (P35367 whole entry): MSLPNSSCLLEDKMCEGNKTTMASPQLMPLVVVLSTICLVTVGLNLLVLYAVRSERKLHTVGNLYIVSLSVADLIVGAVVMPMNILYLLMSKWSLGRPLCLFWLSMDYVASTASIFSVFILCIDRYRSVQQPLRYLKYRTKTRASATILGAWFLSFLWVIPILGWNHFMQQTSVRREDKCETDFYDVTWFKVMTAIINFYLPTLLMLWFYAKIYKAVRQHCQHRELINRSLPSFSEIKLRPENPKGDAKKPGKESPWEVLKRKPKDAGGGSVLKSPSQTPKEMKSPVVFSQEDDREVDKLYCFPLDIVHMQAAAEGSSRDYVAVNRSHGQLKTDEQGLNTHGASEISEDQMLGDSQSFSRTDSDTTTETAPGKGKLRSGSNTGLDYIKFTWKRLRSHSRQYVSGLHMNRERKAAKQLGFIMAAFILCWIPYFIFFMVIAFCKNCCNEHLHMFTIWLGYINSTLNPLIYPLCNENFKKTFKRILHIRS
row,SMILES,IC50 [nM]
1,"CCOC(=O)c1ccc2c(c1)C(=CCCN(C)C)c1sccc1CO2 [Compound 3, Ethyl (E,Z)-4-(3-dimethylaminopropylidene)-4,10-dihydro-9-oxa-3-thiabenzo[f]azulene-6-carboxylate hydrochloride]",22.2
2,"CN(C)CCC=C1c2ccccc2CCc2sc(C(=O)NCCO)cc21 [Compound 9, (E,Z)-4-(3-Dimethylaminopropylidene)-9,10-dihydro-4H-1-thiabenzo[f]azulene-2-carboxylic-(2-hydroxyethyl)amide hydrochloride]",55.7
3,"CCOC(=O)/C=C/c1ccc2c(c1)/C(=C/CCN(C)C)c1sccc1CO2 [Compound 13, Ethyl (E,Z)-3-[4-(3-dimethylaminopropylidene)-4,10-dihydro-9-oxa-3-thiabenzo[f]azulen-6-yl]acrylate hydrochloride]",32.4
4,"CCOC(=O)C(C)(C)c1ccc2c(c1)C(=CCCN(C)C)c1sccc1CO2 [Compound 21, Ethyl (E,Z)-2-[4-(3-dimethylaminopropylidene)-4,10-dihydro-9-oxa-3-thiabenzo[f]azulen-6-yl]-2-methylpropionate hydrochloride]",74.7
5,"CN(C)CCC=C1c2ccccc2CCc2sc(C(C)(C)C(=O)O)cc21 [Compound 23, (E,Z)-2-[4-(3-Dimethylaminopropylidene)-9,10-dihydro-4H-1-thiabenzo[f]azulen-2-yl]-2-methylpropionic acid]",74.6
6,CN(CC/C=C1\c2cc(CC(=O)O)ccc2OCc2ccsc21)Cc1ccccc1 [Compound 40],19.1
7,"O=C(O)Cc1ccc2c(c1)/C(=C\CCNCc1ccccc1)c1sccc1CO2 [Compound 42, (E)-[4-(3-Benzylaminopropylidene)-4,10-dihydro-9-oxa-3-thiabenzo[f]azulen-6-yl]acetic acid]",99.8
8,"O=C(O)Cc1ccc2c(c1)/C(=C\CCN1CCN(c3ccccc3)CC1)c1sccc1CO2 [Compound 54, (E)-{4-[3-(4-Phenylpiperadin-1-yl)propylidene]-4,10-dihydro-9-oxa-3-thiabenzo[f]azulen-6-yl}acetic acid]",10.9
9,"O=C(O)Cc1ccc2c(c1)/C(=C/CCN1CCN(c3ccccc3)CC1)c1sccc1CO2 [Compound 55, (Z)-{4-[3-(4-Phenylpiperadin-1-yl)propylidene]-4,10-dihydro-9-oxa-3-thiabenzo[f]azulen-6-yl}acetic acid]",19.6
10,"CN(C)CC/C=C1\c2cc(CCC(=O)O)ccc2OCc2sccc21 [Compound 56, (E)-3-[4-(3-Dimethylaminopropylidene)-4,10-dihydro-9-oxa-1-thiabenzo[f]azulen-6-yl]propionic acid hydrochloride]",29
11,"O=C(O)Cc1ccc2c(c1)/C(=C\CCN1CCC(=O)CC1)c1sccc1CO2 [Compound 62, (E)-{4-[3-(4-Oxopiperidin-1-yl)propylidene]-4,10-dihydro-9-oxa-3-thiabenzo[f]azulen-6-yl}acetic acid]",60.5
12,"CN(C)CC/C=C1\c2cc(CC(=O)O)ccc2CCc2ccsc21 [Compound 64, (E)-[4-(3-Dimethylaminopropylidene)-9,10-dihydro-4H-3-thiabenzo[f]azulen-6-yl]acetic acid]",8.56
13,"CN(C)CC/C=C1/c2cc(CC(=O)O)ccc2CCc2ccsc21 [Compound 65, (Z)-[4-(3-Dimethylaminopropylidene)-9,10-dihydro-4H-3-thiabenzo[f]azulen-6-yl]acetic acid hydrochloride]",14
14,"O=C(O)Cc1ccc2c(c1)/C(=C\CCN1CCC(N3CCCCC3)CC1)c1sccc1CO2 [Compound 66, (E)-{4-[3-([1,4′]Bipiperidin-1′-yl)propylidene]-4,10-dihydro-9-oxa-3-thiabenzo[f]azulen-6-yl}acetic acid diformate]",31.2
15,"O=C(O)Cc1ccc2c(c1)C(=CCCN1CCSCC1)c1sccc1CO2 [Compound 68, (E,Z)-{4-[3-(Thiomorpholin-4-yl)propylidene]-4,10-dihydro-9-oxa-3-thiabenzo[f]azulen-6-yl}acetic acid]",45.2
